Reference: patent US9957252B2, “Metalloenzyme inhibitor compounds as fungicides” (Dow AgroSciences LLC, priority 2014, dated 2018)
Like-named read-outs stand apart in the source and are kept apart here.

Tests used:
[1] = system: standard laboratory SEPTTR isolate (SI SEPTTR); Mycosphaerella graminicola; Anamorph: Septoria tritici; assay: Leaf blotch of wheat fungicidal activity, Type A assay (technical grade in acetone/water with Triton X-100, booth sprayer), standard laboratory isolate; type: in vivo, Mycosphaerella graminicola on wheat plants (variety Yuma); conditions: Zymoseptoria tritici, 24 h, 1 Day Protectant, wheat seedlings (Yuma), read-out: Disease control, SI SEPTTR Type A Assay (50 ppm) 1DP
Method: (§1) Evaluation of Fungicidal Activity: Leaf Blotch of Wheat (Mycosphaerella graminicola; Anamorph: Septoria tritici; Bayer code SEPTTR):
(§2) For Type A assays, technical grades of the experimental fungicides in Table 4 below were dissolved in acetone, and then mixed with nine volumes of water containing 110 ppm Triton X-100. The fungicide solutions were applied onto wheat seedlings using an automated booth sprayer. For Type B assays, emulsifiable concentrate (EC) formulations of technical grades of experimental fungicides in Table 4 below were prepared at 10% (w/v), and then mixed with 150 volumes of 0.1% Trycol 5941. The fungicide solutions were applied onto wheat seedlings using an automated track sprayer at 200 L/ha. All sprayed plants were allowed to air dry prior to further handling.
(§3) Wheat plants (variety Yuma) were grown from seed in a greenhouse in 50% mineral soil/50% soil-less Metro mix until the first leaf was fully emerged, with 7-10 seedlings per pot. Prior to or after application of experimental fungicides, plants were inoculated either with spores of a standard laboratory SEPTTR isolate (SI SEPTTR) or with spores from a SEPTTR field isolate collected from Wellsbourne, England in 2012 (FI SEPTTR). After inoculation, the plants were kept for 3 days at 20° C. in 100% relative humidity (one day in a dark dew chamber followed by two days in a lighted dew chamber). Plants were then transferred to a 20° C. greenhouse for disease development. When disease symptoms were fully expressed on untreated plants, infection levels on treated plants were assessed on a scale of 0 to 100 percent disease severity. Percent disease control was calculated using the ratio of disease severity on treated plants relative to untreated plants.

[2] = Leaf blotch of wheat fungicidal activity, Type B assay (10% EC formulation in 0.1% Trycol 5941, track sprayer 200 L/ha), field isolate; type: in vivo, Mycosphaerella graminicola on wheat plants (variety Yuma); conditions: Zymoseptoria tritici, 72 h, field isolate (Wellsbourne, England 2012), wheat seedlings (Yuma)
Method: as §1, §2, §3

[3] = 3 Day Curative, read-out: Disease control, FI SEPTTR Type B Assay (100 g/ha) 3DC
[4] = 3 Day Protectant, read-out: Disease control, FI SEPTTR Type B Assay (100 g/ha) 3DP

Row | Compound | pest or weed control at 50 ppm [1] [%] | pest or weed control at 100 g/ha [2, 3] [%] | pest or weed control at 100 g/ha [2, 4] [%]
1 | COc1cc(-c2ccc(CC#N)cc2)ccc1C(O)(c1cncnc1)C(C)(C)C (stereo not shown) [Compound 48] | 80 to 100 |  | 
2 | CC(C)(C)C(O)(c1cncnc1)c1ccc(-c2ccc(C(F)(F)F)cc2F)cc1F (stereo not shown) [Compound 31] | 80 to 100 |  | 
3 | Cc1cc(-c2ccc(C3(C#N)CC3)cc2F)ccc1C(O)(c1cncnc1)C(C)(C)C (stereo not shown) [Compound 103] |  | 80 to 100 | 80 to 100
4 | CC(C)(C)c1ccc(-c2ccc(C(O)(c3cccnc3)C(C)(C)C)c(Cl)c2)cc1 (stereo not shown) [Compound 72] |  | 60 to 79 | 80 to 100
5 | Cc1cc(-c2ccc(OC(F)(F)F)cn2)ccc1C(O)(c1cncnc1)C(C)(C)C (stereo not shown) [Compound 94, 2,2-dimethyl-1-(2-methyl-4-(5-(trifluoromethoxy)pyridin-2-yl)phenyl)-1-(pyrimidin-5-yl)propan-1-ol] |  | 80 to 100 | 80 to 100
6 | CC(C)(C)C(O)(c1cccnc1)c1ccc(-c2ccc(C#N)cc2)cc1Cl (stereo not shown) [Compound 68] |  | 60 to 79 | 80 to 100
7 | CC(C)(C#N)c1ccc(-c2ccc(C(O)(c3cncnc3)C(C)(C)C)c(Cl)c2)c(F)c1 (stereo not shown) [Compound 95] |  | 80 to 100 | 80 to 100
8 | CC(C)(C)C(O)(c1cncnc1)c1ccc(-c2ccc(C3(C#N)CC3)cc2)cc1F (stereo not shown) [Compound 75] |  | 80 to 100 | 80 to 100
9 | CC(C)(C)C(O)(c1cncnc1)c1ccc(-c2ccc(OC(F)(F)F)cc2F)cc1F (stereo not shown) [Compound 78] |  | 80 to 100 | 80 to 100
10 | Cc1cc(OC(F)(F)F)ccc1-c1ccc(C(O)(c2cncnc2)C(C)(C)C)c(F)c1 (stereo not shown) [Compound 74] |  | 80 to 100 | 80 to 100
11 | CC(C)(C#N)c1ccc(-c2ccc(C(O)(c3cccnc3)C(C)(C)C)c(Cl)c2)cc1 (stereo not shown) [Compound 71] |  | 80 to 100 | 80 to 100
12 | COC(c1cncnc1)(c1ccc(-c2ccc(OCC(F)(F)F)cc2)cc1F)C(C)(C)C (stereo not shown) [Compound 83] |  | 80 to 100 | 80 to 100
13 | Cc1cc(-c2ccc(C(C)(C)C#N)cc2F)ccc1C(O)(c1cncnc1)C(C)(C)C (stereo not shown) [Compound 91] |  | 80 to 100 | 80 to 100
14 | COc1ncncc1C(O)(c1ccc(-c2ccc(OCC(F)(F)F)nc2)cc1F)C(C)(C)C (stereo not shown) [Compound 87] |  | 80 to 100 | 80 to 100
15 | CC(C)(C)C(O)(c1cccnc1)c1ccc(-c2ccc(SC(F)(F)F)cc2)cc1Cl (stereo not shown) [Compound 65] |  | 80 to 100 | 80 to 100
16 | CC(C)(C)C(O)(c1cncnc1)c1ccc(-c2ccc(C3(C#N)CC3)cc2F)cc1F (stereo not shown) [Compound 97] |  | 80 to 100 | 80 to 100
17 | CC(C)(C#N)c1ccc(-c2ccc(C(O)(c3cncnc3)C(C)(C)C)c(F)c2)c(F)c1 (stereo not shown) [Compound 101] |  | 80 to 100 | 80 to 100
18 | CC(C)(C)C(O)(c1cccnc1)c1ccc(-c2ccc(OC(F)(F)F)cc2)cc1Cl (stereo not shown) [Compound 64] |  | 80 to 100 | 80 to 100
19 | CC(C)(C)C(O)(c1cncnc1)c1ccc(-c2ccc(OC(F)(F)F)cc2F)cc1Cl (stereo not shown) [Compound 104] |  | 80 to 100 | 80 to 100
20 | CC(C)(C#N)c1ccc(-c2ccc(C(O)(c3cncnc3)C(C)(C)C)c(Cl)c2)cc1 (stereo not shown) [Compound 86] |  | 60 to 79 | 80 to 100
21 | CC(C)(C)C(O)(c1cccnc1)c1ccc(-c2ccc(CC#N)cc2)cc1Cl (stereo not shown) [Compound 69] |  | 40 to 59 | 80 to 100

Row | Compound | pest or weed control at 50 ppm [1] [%] | pest or weed control at 100 g/ha [2, 3] [%] | pest or weed control at 100 g/ha [2, 4] [%]
22 | CC(C)(C)C(O)(c1cncnc1)c1ccc(-c2ccc(OC(F)(F)F)cn2)cc1F (stereo not shown) [Compound 102] |  | 80 to 100 | 80 to 100
23 | COc1ncncc1C(O)(c1ccc(-c2ccc(OC(F)(F)F)cc2)cc1F)C(C)(C)C (stereo not shown) [Compound 96] |  | 80 to 100 | 80 to 100
24 | Cc1cc(OC(F)(F)F)ccc1-c1ccc(C(O)(c2cncnc2)C(C)(C)C)c(Cl)c1 (stereo not shown) [Compound 99] |  | 80 to 100 | 80 to 100
25 | COc1ncncc1C(O)(c1ccc(-c2ccc(C3(C#N)CC3)cc2)cc1F)C(C)(C)C (stereo not shown) [Compound 100] |  | 80 to 100 | 80 to 100
26 | CC(C)(C)C(O)(c1cccnc1)c1ccc(-c2ccc(OCC(F)(F)F)cc2)cc1Cl (stereo not shown) [Compound 67] |  | 80 to 100 | 80 to 100
27 | COC(c1cncnc1)(c1ccc(-c2ccc(C3(C#N)CC3)cc2)cc1F)C(C)(C)C (stereo not shown) [Compound 84] |  | 80 to 100 | 80 to 100
28 | CC(C)(C)C(O)(c1cccnc1)c1ccc(-c2ccc(C3(C#N)CC3)cc2)cc1Cl (stereo not shown) [Compound 70] |  | 80 to 100 | 80 to 100
29 | Cc1cc(C(C)(C)C#N)ccc1-c1ccc(C(O)(c2cncnc2)C(C)(C)C)c(F)c1 (stereo not shown) [Compound 105] |  | 80 to 100 | 80 to 100
30 | CC(C)(C)C(O)(c1cccnc1)c1ccc(-c2ccc(OC(F)F)cc2)cc1Cl (stereo not shown) [Compound 66] |  | < 40 | 80 to 100
31 | COC(c1cncnc1)(c1ccc(-c2ccc(OC(F)(F)F)cc2C)cc1F)C(C)(C)C (stereo not shown) [Compound 80] |  | 80 to 100 | 80 to 100
32 | COC(c1cncnc1)(c1ccc(-c2ccc(C(C)(C)C#N)cc2)cc1F)C(C)(C)C (stereo not shown) [Compound 85] |  | 80 to 100 | 80 to 100
33 | COC(c1cncnc1)(c1ccc(-c2ccc(OCC(F)(F)F)nc2)cc1F)C(C)(C)C (stereo not shown) [Compound 82] |  | 80 to 100 | 80 to 100
34 | COc1ncncc1C(O)(c1ccc(-c2ccc(OC(F)(F)F)cc2C)cc1F)C(C)(C)C (stereo not shown) [Compound 88] |  | 80 to 100 | 80 to 100
35 | CC(C)(C)C(O)(c1cncnc1)c1ccc(-c2ccc(C3(C#N)CC3)cc2F)cc1Cl (stereo not shown) [Compound 106] |  | 60 to 79 | 80 to 100
36 | CC(C)(C#N)c1ccc(-c2ccc(C(O)(c3cncnc3)C(C)(C)C)c(F)c2)cc1 (stereo not shown) [Compound 77] |  | 80 to 100 | 80 to 100
37 | Cc1cc(OC(F)(F)F)ccc1-c1ccc(C(O)(c2cccnc2)C(C)(C)C)c(Cl)c1 (stereo not shown) [Compound 73] |  | 40 to 59 | 80 to 100
38 | COc1ncncc1C(O)(c1ccc(-c2ccc(C(C)(C)C#N)cc2)cc1F)C(C)(C)C (stereo not shown) [Compound 92] |  | 80 to 100 | 80 to 100
39 | CC(C)(C)C(O)(c1cncnc1)c1ccc(-c2ccc(OCC(F)(F)F)nc2)cc1F (stereo not shown) [Compound 76] |  | 80 to 100 | 60 to 79
40 | CC(C)(C)C(O)(c1cncnc1)c1ccc(-c2ccc(C3(C#N)CC3)cc2)cc1Cl (stereo not shown) [Compound 89] |  | 60 to 79 | 80 to 100
41 | COC(c1cncnc1)(c1ccc(-c2ccc(OC(F)(F)F)cc2F)cc1F)C(C)(C)C (stereo not shown) [Compound 81] |  | 80 to 100 | 80 to 100
42 | COC(c1cncnc1)(c1ccc(-c2ccc(OC(F)(F)F)cc2)cc1F)C(C)(C)C (stereo not shown) [Compound 79, 5-(1-(3-fluoro-4′-(trifluoromethoxy)-[1,1′-biphenyl]-4-yl)-1-methoxy-2,2-dimethylpropyl)pyrimidine] |  | 80 to 100 | 80 to 100
